{"source": "patent US20260364072A1", "about": "“METHODS FOR PROMOTING EXPANSION OF HUMAN CD34+ CELLS IN VIVO AND FOR PROMOTING NEURAL REGENERATION” (THE REGENTS OF THE UNIVERSITY OF CALIFORNIA, priority 2023, published 2026)", "key": {"[1]": {"test_system": "solid tumors", "settings": "cited from earlier work"}, "[2]": {"test_system": "MDA-MB-231 cells", "assay": "IVIS total flux in MDA-MB-231 transplanted mice", "type": "in vivo, human cells in Rag2 neonatal mice", "settings": "0 day after completing the dosing plan; compared to vehicle control", "excerpt": "FIG. 5 graphically illustrates IVIS (In Vivo Imaging System) results of ADAR1-MDA-MB-231 transplanted Rag2 mouse models, and IVIS images were taken at 6 weeks after transplant (FIG. 5A), after two weeks of therapy (FIG. 5B), and one week after therapy was completed (FIG. 5C), as discussed in further detail in Example 5, below.\nTen thousand (10k) MDA-MB-231 cells were intrahepatically transplanted into Rag2 neonatal mice, then treated with fedratinib, rebecsinib, or a combination of fedratinib and rebecsinib. IVIS images were taken at 6 weeks after transplant (FIG. 5A), after two weeks of therapy (FIG. 5B), and one week after therapy was completed (FIG. 5C). The IVIS signals from the mice were graphed by groups.\nThe IVIS images of these mice were taken at 0 day after completing the dosing plan and are graphed by their total flux."}, "[3]": {"test_system": "ADAR1 and MCL1 transcripts", "assay": "Comparative in vivo study with fedratinib", "parameters": "species or system human cells in mice", "settings": "twice daily oral 60 mg/kg, two weeks", "protocol": "Additional aliquots of CD34+ cells from bone marrow and/or spleens of treated and control animals were used for serial transplantation assays after Rebecsinib treatment, including engraftment studies and overall survival assays. In a separate cohort of animals, mice were treated with Fedratinib for two weeks (twice daily oral delivery at 60 mg/kg) as a positive control for modulation of ADAR1 expression and activity.^8"}, "[4]": {"test_system": "hematologic malignancies", "settings": "Phase 1, cited from earlier work"}}, "note": "Where a name gives a salt, the structure may show the parent alone."}
{"compound": "CC[C@H](O)[C@@H](C)[C@H]1O[C@@H]1C[C@@](C)(O)/C=C/C=C(\\C)[C@H]1OC(=O)C[C@H](O)CC[C@@](C)(O)[C@@H](OC(=O)N2CCN(C3CCCCCC3)CC2)/C=C/[C@@H]1C", "note": "[E7107]", "values": [{"measurement": "reversible optic neuritis", "setting": "[1]; patients with solid tumors", "value": "2 of 26"}, {"measurement": "stability", "setting": "[1]; related to optic neuritis", "value": "compound instability"}]}
{"compound": "Cc1cnc(Nc2ccc(OCCN3CCCC3)cc2)nc1Nc1cccc(S(=O)(=O)NC(C)(C)C)c1", "note": "[fedratinib, N-tert-butyl-3-[(5-methyl2-{[4-(2-pyrrolidin-1-ylethoxy)phenyl]amino}pyrimidin-4-yl)amino]benzenesulfonamide dihydrochloride monohydrate]", "values": [{"measurement": "total flux (IVIS)", "setting": "[2]", "value": "significantly decreased"}, {"measurement": "ADAR1 expression", "setting": "[3]", "value": "significantly reduced ADAR1 expression"}, {"measurement": "MCL1 splicing", "setting": "[3]", "value": "no alteration of MCL1 splicing"}]}
{"compound": "H3B-8800", "values": [{"measurement": "durable remissions", "setting": "[4]", "value": "not sufficiently potent to induce durable remissions"}, {"measurement": "red blood transfusion independence", "setting": "[4]; efficacy dependent on SRSF2 mutations", "value": "red blood transfusion independence in some patients"}]}
